From article PMC9680877 (ACS Chemical Biology, 2022) come the findings set out here.

Common to all, as to type: binding
One experiment has as its system kinases. Description: Kinobeads profiling. Particulars: latest version of Kinobeads, without immobilized staurosporine.
For the next experiment, the target named is T1, OTUD4 (Homo sapiens, UniProt Q01804).
T1 sequence (Q01804 1-1114): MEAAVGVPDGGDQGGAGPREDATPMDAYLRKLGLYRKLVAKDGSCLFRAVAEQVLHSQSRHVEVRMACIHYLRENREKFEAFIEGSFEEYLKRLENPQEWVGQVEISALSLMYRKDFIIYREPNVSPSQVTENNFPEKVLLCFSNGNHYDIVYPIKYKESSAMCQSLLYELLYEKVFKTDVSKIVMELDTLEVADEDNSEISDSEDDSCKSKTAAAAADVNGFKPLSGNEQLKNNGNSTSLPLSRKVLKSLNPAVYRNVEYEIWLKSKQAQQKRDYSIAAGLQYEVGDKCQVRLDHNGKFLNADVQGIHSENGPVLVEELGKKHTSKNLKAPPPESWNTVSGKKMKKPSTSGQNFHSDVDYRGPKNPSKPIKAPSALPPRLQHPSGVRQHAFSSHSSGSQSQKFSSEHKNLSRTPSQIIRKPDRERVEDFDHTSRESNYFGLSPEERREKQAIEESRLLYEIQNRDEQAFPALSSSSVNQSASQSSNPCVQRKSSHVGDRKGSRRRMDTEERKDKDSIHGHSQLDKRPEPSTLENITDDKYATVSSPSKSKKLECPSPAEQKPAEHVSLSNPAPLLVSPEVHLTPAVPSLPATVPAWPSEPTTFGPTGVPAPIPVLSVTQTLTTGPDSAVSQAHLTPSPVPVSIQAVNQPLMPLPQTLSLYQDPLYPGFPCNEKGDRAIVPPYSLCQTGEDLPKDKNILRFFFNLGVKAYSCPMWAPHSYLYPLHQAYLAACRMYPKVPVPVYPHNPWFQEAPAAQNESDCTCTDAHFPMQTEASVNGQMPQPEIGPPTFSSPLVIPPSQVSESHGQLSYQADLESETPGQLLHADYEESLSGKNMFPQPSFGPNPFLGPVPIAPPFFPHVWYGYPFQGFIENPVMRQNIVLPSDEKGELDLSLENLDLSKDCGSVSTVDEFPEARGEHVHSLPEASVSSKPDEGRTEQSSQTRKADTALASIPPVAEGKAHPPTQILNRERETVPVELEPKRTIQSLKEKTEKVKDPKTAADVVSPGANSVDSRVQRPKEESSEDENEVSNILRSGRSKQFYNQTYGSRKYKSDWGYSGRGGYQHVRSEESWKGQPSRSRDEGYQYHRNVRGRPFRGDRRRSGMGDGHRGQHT
Description: dose-response competition pulldown with MS readout.

Another experiment concerns the target T2, MED15 (Homo sapiens, UniProt Q96RN5).
T2 sequence (Q96RN5 1-788): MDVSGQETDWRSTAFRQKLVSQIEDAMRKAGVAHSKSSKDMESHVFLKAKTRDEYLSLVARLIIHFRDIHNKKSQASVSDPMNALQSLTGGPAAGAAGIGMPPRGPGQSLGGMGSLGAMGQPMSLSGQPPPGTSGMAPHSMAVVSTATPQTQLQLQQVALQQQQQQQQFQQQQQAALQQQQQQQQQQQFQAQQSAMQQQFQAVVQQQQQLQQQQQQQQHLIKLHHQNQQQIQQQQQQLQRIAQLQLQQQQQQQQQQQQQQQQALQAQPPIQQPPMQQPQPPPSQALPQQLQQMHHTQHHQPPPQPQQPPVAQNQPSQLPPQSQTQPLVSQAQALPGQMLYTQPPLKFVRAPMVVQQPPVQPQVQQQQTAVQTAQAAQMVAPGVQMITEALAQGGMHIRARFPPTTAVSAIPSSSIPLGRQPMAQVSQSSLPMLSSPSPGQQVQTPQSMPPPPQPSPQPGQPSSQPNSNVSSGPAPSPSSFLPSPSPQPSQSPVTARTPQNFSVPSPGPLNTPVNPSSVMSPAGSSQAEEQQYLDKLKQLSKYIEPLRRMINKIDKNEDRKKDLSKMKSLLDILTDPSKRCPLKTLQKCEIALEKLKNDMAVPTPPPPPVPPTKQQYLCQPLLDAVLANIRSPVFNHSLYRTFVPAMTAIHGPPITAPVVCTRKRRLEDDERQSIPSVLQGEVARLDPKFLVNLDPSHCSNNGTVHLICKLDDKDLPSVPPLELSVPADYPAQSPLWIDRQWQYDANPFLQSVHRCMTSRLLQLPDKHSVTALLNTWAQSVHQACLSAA
Description: dose-response competition pulldown with MS readout.

For a further experiment, the target named is T3, GATA2 (Homo sapiens, UniProt P23769).
T3 sequence (P23769 1-480): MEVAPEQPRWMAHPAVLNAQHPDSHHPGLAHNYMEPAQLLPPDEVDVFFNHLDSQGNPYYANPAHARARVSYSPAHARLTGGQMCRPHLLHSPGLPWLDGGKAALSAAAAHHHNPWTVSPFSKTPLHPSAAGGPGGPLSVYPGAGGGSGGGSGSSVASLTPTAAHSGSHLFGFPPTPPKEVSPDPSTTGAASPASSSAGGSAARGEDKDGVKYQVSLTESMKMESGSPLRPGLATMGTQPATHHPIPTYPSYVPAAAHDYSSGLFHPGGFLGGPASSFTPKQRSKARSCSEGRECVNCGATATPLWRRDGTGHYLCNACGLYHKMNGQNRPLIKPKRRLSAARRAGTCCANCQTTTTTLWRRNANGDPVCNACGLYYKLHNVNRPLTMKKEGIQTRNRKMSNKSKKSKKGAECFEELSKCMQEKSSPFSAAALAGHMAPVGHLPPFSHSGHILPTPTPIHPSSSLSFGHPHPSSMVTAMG
Description: dose-response competition pulldown with MS readout.

The next experiment concerns the target T4, UBAP2L (Homo sapiens, UniProt Q14157).
T4 sequence (Q14157 1-1087): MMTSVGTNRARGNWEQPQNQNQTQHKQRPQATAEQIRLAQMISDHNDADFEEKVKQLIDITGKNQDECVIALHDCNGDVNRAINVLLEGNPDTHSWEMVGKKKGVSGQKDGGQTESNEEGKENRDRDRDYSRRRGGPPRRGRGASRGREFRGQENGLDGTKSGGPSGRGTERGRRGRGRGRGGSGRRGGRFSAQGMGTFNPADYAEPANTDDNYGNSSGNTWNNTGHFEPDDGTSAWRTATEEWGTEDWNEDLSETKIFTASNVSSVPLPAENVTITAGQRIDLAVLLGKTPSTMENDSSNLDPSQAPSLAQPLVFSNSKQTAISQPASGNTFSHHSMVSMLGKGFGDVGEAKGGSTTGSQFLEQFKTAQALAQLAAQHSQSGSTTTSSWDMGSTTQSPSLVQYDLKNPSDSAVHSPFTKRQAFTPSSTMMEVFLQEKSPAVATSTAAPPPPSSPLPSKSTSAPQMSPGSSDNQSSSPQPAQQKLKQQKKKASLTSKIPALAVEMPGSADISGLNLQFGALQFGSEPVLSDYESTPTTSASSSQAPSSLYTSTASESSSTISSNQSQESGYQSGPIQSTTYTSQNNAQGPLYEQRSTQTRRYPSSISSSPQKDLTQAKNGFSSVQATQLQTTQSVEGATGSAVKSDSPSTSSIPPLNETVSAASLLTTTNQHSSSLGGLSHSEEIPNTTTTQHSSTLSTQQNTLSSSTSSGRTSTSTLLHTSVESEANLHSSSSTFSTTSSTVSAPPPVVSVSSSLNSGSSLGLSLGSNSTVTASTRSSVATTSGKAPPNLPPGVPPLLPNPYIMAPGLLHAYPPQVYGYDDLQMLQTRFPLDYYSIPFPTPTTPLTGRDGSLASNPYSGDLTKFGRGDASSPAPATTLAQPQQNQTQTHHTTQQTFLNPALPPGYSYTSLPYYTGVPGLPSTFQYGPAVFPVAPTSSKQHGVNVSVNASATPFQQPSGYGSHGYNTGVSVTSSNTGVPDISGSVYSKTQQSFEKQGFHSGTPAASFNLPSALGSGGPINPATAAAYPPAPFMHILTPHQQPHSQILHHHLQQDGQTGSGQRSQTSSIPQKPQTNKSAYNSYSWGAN
Description: dose-response competition pulldown with MS readout.

A further experiment has as its target T5, TRIM11 (Homo sapiens, UniProt Q96F44).
T5 sequence (Q96F44 1-468): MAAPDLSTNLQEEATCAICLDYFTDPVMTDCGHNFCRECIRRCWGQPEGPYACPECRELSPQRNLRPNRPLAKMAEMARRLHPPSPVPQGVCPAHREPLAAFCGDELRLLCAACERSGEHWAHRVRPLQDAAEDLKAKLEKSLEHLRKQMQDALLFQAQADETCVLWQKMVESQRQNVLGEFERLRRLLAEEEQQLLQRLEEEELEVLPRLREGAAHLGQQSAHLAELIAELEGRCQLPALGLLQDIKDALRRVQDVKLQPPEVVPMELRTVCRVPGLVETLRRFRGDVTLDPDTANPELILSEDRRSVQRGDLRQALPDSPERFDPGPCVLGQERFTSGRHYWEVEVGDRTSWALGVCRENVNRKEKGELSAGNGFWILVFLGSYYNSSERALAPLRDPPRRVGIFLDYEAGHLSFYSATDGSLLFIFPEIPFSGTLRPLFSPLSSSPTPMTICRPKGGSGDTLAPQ
Description: dose-response competition pulldown with MS readout.

The next experiment has as its target CNOT1 (Homo sapiens, UniProt A5YKK6). Description: dose-response competition pulldown with MS readout. Particulars: SW-620 lysate; free FAD vs photo-immobilized FAD beads.
The target of another experiment is T6, TCF3 (Homo sapiens, UniProt P15923).
T6 sequence (P15923 1-654): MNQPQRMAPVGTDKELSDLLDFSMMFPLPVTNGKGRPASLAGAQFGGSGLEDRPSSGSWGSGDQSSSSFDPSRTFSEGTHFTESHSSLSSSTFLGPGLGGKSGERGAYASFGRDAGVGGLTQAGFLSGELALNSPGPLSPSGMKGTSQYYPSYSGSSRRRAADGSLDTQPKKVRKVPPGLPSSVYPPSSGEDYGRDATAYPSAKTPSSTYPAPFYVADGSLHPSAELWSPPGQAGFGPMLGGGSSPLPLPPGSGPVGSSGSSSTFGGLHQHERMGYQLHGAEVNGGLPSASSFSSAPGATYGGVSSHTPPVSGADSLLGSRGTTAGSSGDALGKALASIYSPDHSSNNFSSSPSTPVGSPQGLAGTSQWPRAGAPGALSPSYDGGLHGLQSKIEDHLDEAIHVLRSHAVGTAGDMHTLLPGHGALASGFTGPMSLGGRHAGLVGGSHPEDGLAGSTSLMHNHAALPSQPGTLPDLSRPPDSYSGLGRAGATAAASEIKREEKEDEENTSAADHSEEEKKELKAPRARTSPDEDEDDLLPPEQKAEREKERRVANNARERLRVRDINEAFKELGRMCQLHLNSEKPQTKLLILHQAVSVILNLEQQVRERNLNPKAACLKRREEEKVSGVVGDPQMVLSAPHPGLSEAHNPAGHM
Description: dose-response competition pulldown with MS readout.

The next experiment deals with GATA1 (Homo sapiens, UniProt P15976). Description: dose-response competition pulldown with MS readout.
Sequence of GATA1 (P15976 whole entry): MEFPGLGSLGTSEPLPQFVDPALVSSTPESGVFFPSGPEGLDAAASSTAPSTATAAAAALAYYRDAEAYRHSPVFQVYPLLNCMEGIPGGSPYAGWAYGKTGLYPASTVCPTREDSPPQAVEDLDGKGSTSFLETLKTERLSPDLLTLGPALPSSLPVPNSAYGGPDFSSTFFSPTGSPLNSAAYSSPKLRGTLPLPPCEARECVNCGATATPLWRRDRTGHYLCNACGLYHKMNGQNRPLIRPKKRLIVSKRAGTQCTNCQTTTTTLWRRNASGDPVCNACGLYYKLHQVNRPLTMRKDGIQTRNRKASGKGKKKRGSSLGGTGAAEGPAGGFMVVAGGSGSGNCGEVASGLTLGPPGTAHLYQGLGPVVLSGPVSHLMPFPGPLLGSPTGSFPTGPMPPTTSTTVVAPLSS

Sequence of CNOT1 (A5YKK6 whole entry): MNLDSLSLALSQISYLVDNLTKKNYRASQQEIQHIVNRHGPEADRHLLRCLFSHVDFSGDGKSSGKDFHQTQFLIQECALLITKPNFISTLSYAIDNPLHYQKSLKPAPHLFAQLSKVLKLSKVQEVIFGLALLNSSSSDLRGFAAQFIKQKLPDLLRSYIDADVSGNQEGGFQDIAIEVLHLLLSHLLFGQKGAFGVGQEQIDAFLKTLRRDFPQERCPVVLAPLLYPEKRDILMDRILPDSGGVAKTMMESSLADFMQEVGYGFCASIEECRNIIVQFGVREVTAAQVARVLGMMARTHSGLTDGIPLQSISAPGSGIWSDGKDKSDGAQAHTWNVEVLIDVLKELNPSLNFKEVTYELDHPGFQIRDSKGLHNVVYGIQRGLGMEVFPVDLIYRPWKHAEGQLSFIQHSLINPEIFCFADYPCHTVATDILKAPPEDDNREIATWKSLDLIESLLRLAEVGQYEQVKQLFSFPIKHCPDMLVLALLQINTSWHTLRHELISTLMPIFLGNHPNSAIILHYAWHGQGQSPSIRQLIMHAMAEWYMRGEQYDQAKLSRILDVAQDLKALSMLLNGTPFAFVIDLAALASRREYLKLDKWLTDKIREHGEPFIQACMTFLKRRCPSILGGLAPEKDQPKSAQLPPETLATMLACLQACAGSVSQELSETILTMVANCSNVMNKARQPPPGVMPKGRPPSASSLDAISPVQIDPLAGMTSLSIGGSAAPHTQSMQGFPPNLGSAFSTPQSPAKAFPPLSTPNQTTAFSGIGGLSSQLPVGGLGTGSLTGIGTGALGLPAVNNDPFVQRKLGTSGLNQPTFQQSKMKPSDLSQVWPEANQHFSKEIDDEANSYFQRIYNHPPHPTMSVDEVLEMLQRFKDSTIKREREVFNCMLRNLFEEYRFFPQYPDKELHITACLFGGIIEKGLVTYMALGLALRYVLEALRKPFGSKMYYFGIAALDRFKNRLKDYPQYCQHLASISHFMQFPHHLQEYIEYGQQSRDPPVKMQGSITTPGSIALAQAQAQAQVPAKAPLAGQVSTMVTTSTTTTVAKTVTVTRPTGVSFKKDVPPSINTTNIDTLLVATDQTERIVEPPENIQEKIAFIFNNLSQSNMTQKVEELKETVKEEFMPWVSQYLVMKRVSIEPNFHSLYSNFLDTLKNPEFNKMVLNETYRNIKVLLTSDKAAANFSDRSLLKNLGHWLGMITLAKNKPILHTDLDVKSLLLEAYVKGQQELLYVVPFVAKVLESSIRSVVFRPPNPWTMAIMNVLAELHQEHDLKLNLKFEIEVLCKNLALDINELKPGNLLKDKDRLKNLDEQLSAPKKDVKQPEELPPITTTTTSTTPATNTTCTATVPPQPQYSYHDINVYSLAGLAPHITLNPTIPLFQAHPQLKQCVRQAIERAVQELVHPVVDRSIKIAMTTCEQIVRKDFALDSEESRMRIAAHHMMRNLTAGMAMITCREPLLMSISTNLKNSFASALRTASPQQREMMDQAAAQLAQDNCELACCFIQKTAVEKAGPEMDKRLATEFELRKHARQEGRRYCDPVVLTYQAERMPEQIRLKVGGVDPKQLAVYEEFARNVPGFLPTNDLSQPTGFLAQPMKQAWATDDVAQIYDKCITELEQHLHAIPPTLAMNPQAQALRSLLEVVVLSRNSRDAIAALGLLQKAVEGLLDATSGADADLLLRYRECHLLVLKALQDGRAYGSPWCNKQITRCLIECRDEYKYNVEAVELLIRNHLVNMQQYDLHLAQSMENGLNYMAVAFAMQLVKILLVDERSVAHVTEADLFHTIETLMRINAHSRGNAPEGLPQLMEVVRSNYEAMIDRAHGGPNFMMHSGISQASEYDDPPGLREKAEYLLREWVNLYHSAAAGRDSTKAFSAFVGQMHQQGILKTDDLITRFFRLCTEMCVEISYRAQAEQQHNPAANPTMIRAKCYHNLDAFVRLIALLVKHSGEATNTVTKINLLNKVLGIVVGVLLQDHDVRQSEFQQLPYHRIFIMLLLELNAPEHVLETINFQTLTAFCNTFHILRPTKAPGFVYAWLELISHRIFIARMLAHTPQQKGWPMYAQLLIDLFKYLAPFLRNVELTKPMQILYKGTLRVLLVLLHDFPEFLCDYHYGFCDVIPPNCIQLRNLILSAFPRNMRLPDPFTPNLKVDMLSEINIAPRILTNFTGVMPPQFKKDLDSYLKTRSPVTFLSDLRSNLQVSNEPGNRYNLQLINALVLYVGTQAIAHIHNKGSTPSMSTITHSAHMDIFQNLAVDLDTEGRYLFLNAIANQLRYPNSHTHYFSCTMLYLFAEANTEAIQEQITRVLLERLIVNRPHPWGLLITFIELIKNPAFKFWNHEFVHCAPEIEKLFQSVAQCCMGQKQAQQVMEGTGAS

`CN[C@@H]1C[C@H]2O[C@@](C)([C@@H]1OC)n1c3ccccc3c3c4c(c5c6ccccc6n2c5c31)C(=O)NC4` [Staurosporine]: the “number of kinase targets with affinities below 10 μM” value in the experiment with kinases was 94.

Broadly, the Kd is the free concentration of one partner at which half of the binding sites on the other are occupied at equilibrium, for simple one-to-one binding. Read a high Kd as weaker binding. For `Cc1cc2nc3c(=O)[nH]c(=O)nc-3n(C[C@H](O)[C@H](O)[C@H](O)COP(=O)(O)OP(=O)(O)OC[C@H]3O[C@@H](n4cnc5c(N)ncnc54)[C@H](O)[C@@H]3O)c2cc1C` [FAD, flavin adenine dinucleotide], the Kd at OTUD4 was determined as 11 nM; at MED15, 14 nM; at GATA2, 7 nM; at UBAP2L, 36 nM; on TRIM11 it was 186 nM; at TCF3, 78 nM. The compound further registered a Kd on GATA1 of 20 nM. Further, on CNOT1, the “CNOT1 bound by the matrix but not competed up to” value was more than 100 µM.
